Test results taken from ChEMBL document CHEMBL1139219, “Synthesis and biological evaluation of quinoline salicylic acids as P-selectin antagonists” (J Med Chem, 2007).
The source made the active and inactive calls. The rule behind the calls is not given here.

Assays:
[1] = target: P-selectin (Homo sapiens) (UniProt P16109); experiment: Inhibition of human recombinant P-selectin expressed in CHO cells by Biacore assay at 6 mM
[2] = target: Dihydroorotate dehydrogenase (quinone), mitochondrial (Homo sapiens, UniProt Q02127)
Dihydroorotate dehydrogenase (quinone), mitochondrial, sequence (Q02127 whole entry): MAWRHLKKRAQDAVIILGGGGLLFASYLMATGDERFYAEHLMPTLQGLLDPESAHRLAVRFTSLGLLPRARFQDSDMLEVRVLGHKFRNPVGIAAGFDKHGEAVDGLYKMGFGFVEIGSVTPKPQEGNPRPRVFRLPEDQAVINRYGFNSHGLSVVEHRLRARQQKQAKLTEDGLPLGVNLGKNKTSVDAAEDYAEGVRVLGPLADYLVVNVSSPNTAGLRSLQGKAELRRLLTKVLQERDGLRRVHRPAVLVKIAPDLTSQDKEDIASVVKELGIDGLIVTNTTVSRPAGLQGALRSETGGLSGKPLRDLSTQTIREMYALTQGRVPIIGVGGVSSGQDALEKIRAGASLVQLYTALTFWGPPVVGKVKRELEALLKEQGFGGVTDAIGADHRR
Description: Inhibition of human recombinant DHOD expressed in Escherichia coli

[3] = target: P-selectin (Homo sapiens) (UniProt P16109); experiment: Inhibition of human recombinant P-selectin expressed in CHO cells by Biacore assay at 250 uM
HUVEC = experiment: Inhibition of neutrophil adhesion to IL4-stimulated HUVEC by leukocyte rolling assay; type: functional, cell-based; details: Homo sapiens
[4] = Clearance in Sprague-Dawley rat at 1 mg/kg, iv; type: ADME, organism-based; set-up: dose 1 mg/kg, route intravenous; details: in vivo
[5] = AUC in Sprague-Dawley rat at 1 mg/kg, iv; type: ADME, organism-based; set-up: dose 1 mg/kg, route intravenous; details: plasma
[6] = Cmax in Sprague-Dawley rat at 1 mg/kg, iv; type: ADME, organism-based; set-up: dose 1 mg/kg, route intravenous; details: in vivo
Rattus norvegicus [7] = species: Rattus norvegicus; experiment: Toxicity in Lewis rat Freund's complete adjuvant-induced arthritis model; type: organism-based; details: in vivo
Rattus norvegicus [8] = experiment: Plasma concentration in Lewis rat Freund's complete adjuvant-induced arthritis model at 10 mg/kg, po; type: ADME, organism-based; set-up: dose 10 mg/kg, route oral; details: in vivo
Cytochrome P450 2C9 = Cytochrome P450 2C9 (Homo sapiens, UniProt P11712); experiment: Inhibition of human CYP2C9; type: ADME
Cytochrome P450 2C9, sequence (P11712 whole entry): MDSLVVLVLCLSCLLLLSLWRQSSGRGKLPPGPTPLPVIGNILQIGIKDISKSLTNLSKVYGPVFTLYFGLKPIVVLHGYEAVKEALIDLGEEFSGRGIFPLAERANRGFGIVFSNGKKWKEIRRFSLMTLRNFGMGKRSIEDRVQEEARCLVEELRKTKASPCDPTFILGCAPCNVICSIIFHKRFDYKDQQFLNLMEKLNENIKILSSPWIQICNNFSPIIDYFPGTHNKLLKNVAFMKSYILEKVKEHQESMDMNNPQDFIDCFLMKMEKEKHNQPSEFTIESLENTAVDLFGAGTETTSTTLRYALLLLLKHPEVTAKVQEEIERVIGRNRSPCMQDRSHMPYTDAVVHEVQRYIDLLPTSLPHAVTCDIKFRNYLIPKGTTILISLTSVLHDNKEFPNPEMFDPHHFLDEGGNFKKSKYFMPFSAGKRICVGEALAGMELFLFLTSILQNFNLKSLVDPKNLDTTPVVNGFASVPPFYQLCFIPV

Cytochrome P450 2C8 = target: T1, Cytochrome P450 2C8 (Homo sapiens, UniProt P10632); experiment: Inhibition of human CYP2C8; type: ADME
T1 sequence (P10632 whole entry): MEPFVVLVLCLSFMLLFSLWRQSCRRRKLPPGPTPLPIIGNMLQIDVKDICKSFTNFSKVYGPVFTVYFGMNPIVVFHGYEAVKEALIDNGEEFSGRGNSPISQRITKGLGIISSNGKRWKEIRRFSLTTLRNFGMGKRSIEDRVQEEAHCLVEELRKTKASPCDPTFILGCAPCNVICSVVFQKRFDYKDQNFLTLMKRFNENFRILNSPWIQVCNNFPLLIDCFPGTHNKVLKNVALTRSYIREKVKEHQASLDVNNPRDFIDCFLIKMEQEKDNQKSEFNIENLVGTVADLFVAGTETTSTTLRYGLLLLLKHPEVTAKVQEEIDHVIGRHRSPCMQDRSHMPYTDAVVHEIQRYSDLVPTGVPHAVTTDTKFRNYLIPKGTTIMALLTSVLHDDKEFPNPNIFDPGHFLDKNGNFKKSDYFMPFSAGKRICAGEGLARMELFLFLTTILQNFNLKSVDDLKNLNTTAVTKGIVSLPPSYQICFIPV

Cytochrome P450 1A2 = target: T2, Cytochrome P450 1A2 (Homo sapiens, UniProt P05177); experiment: Inhibition of human CYP1A2; type: ADME
T2 sequence (P05177 whole entry): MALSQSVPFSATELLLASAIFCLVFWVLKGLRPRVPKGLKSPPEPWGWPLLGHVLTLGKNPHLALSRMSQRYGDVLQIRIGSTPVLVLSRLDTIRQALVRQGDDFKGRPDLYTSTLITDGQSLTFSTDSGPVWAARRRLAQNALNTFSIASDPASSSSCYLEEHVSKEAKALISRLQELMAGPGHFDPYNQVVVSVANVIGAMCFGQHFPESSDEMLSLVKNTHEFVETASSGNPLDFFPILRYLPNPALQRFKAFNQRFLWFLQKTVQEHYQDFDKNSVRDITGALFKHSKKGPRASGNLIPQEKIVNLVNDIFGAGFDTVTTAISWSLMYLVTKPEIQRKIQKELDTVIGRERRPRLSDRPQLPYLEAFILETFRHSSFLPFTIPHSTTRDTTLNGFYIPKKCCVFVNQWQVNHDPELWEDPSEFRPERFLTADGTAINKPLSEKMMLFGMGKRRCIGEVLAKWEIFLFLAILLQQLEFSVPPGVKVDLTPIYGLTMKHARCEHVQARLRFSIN

Cytochrome P450 2C19 = Cytochrome P450 2C19 (Homo sapiens, UniProt P33261); experiment: Inhibition of human CYP2C19; type: ADME
Cytochrome P450 2C19, sequence (P33261 whole entry): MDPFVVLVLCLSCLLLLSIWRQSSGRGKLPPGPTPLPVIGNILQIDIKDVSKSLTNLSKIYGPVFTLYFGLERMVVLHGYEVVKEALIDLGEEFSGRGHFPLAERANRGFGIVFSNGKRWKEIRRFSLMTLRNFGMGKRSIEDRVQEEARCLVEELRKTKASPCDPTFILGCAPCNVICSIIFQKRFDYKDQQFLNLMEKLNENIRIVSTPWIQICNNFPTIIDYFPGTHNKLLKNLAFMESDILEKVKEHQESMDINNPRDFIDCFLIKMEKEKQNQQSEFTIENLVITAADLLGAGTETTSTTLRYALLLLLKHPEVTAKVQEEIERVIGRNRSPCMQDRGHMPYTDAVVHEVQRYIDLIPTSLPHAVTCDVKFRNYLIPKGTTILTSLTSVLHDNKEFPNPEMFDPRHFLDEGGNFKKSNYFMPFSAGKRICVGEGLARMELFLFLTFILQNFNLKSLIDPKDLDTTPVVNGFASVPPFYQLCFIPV

Cytochrome P450 2A6 = target: T3, Cytochrome P450 2A6 (Homo sapiens, UniProt P11509); experiment: Inhibition of human CYP2A6; type: ADME
T3 sequence (P11509 whole entry): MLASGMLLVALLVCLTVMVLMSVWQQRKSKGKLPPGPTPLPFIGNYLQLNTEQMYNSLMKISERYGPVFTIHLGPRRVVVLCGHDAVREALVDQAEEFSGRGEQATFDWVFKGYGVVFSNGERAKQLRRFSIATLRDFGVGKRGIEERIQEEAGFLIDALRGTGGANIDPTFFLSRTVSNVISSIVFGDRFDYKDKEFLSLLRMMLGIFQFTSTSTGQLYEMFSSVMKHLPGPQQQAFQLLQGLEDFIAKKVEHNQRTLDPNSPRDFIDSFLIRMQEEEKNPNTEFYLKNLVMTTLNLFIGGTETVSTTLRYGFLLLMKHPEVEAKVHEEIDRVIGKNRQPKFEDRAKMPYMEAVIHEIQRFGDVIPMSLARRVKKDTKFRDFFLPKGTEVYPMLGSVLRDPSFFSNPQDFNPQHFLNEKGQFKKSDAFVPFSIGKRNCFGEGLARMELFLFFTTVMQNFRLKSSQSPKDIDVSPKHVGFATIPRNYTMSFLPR

Rattus norvegicus [9] = experiment: Inhibition of carrageenan-induced paw edema in Sprague-Dawley rat at 0.5 mg/kg, po; type: functional
Rattus norvegicus [10] = experiment: Inhibition of carrageenan-induced paw edema in Sprague-Dawley rat at 1 mg/kg, po; type: functional
Rattus norvegicus [11] = experiment: Inhibition of carrageenan-induced paw edema in Sprague-Dawley rat at 5 mg/kg, po; type: functional
Rattus norvegicus [12] = experiment: Inhibition of carrageenan-induced paw edema in Sprague-Dawley rat at 10 mg/kg, po; type: functional
Rattus norvegicus [13] = experiment: Inhibition of carrageenan-induced paw edema in Sprague-Dawley rat at 50 mg/kg, po; type: functional
Cytochrome P450 3A4 = Cytochrome P450 3A4 (Homo sapiens, UniProt P08684); experiment: Inhibition of human CYP3A4; type: ADME
Cytochrome P450 3A4, sequence (P08684 whole entry): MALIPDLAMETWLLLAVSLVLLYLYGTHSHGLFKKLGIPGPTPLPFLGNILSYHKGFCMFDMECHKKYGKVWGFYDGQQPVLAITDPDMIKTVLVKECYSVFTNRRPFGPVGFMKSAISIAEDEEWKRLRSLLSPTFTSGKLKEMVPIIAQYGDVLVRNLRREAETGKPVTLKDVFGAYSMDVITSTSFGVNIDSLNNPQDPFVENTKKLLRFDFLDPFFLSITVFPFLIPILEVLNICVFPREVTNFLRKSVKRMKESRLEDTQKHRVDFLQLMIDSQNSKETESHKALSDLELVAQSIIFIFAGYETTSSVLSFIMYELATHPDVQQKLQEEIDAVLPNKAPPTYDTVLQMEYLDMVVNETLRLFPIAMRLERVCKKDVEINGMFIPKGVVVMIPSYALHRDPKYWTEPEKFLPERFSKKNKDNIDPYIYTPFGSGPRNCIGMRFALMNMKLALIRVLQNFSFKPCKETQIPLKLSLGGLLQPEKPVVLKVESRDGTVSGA

Cytochrome P450 2D6 = Cytochrome P450 2D6 (Homo sapiens, UniProt P10635); experiment: Inhibition of human CYP2D6; type: ADME
Cytochrome P450 2D6, sequence (P10635 whole entry): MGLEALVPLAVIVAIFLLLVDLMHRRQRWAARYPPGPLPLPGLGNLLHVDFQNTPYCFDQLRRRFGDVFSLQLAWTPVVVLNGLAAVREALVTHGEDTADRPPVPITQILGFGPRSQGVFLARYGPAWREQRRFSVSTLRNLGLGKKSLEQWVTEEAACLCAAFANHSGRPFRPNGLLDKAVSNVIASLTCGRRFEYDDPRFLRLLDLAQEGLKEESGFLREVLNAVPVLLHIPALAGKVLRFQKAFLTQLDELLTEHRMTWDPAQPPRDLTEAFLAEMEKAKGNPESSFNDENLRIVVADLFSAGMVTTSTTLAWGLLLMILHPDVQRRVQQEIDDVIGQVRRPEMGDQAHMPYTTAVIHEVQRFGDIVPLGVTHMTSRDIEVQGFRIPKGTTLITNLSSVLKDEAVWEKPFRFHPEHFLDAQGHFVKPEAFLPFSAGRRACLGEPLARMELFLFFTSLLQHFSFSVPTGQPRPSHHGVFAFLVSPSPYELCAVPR

Rattus norvegicus [14] = experiment: Inhibition of Freund's complete adjuvant-induced arthritis in Lewis rat at 5 mg/kg, po; type: functional, organism-based; set-up: dose 5 mg/kg
[15] = target: Dihydroorotate dehydrogenase (quinone), mitochondrial (Rattus norvegicus) (UniProt Q63707)
Dihydroorotate dehydrogenase (quinone), mitochondrial (Rattus norvegicus), sequence (Q63707 whole entry): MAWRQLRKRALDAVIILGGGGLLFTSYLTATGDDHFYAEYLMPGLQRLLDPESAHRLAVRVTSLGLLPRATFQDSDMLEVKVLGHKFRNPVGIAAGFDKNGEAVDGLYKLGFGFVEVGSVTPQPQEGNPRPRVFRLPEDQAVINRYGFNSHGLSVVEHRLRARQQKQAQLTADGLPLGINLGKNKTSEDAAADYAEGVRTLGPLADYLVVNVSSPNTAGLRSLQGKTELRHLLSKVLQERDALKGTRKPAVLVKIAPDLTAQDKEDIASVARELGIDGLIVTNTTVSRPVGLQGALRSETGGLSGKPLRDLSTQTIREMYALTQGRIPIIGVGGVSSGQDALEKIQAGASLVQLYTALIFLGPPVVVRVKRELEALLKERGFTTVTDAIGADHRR
Description: Antagonist activity against DHOD in rat

[16] = Oral bioavailability in rat; type: ADME, organism-based; details: in vivo
[17] = target: P-selectin (Homo sapiens) (UniProt P16109); experiment: Inhibition of human recombinant P-selectin expressed in CHO cells by Biacore assay at 2 mM

P-selectin (Homo sapiens), sequence (P16109 whole entry, looked up): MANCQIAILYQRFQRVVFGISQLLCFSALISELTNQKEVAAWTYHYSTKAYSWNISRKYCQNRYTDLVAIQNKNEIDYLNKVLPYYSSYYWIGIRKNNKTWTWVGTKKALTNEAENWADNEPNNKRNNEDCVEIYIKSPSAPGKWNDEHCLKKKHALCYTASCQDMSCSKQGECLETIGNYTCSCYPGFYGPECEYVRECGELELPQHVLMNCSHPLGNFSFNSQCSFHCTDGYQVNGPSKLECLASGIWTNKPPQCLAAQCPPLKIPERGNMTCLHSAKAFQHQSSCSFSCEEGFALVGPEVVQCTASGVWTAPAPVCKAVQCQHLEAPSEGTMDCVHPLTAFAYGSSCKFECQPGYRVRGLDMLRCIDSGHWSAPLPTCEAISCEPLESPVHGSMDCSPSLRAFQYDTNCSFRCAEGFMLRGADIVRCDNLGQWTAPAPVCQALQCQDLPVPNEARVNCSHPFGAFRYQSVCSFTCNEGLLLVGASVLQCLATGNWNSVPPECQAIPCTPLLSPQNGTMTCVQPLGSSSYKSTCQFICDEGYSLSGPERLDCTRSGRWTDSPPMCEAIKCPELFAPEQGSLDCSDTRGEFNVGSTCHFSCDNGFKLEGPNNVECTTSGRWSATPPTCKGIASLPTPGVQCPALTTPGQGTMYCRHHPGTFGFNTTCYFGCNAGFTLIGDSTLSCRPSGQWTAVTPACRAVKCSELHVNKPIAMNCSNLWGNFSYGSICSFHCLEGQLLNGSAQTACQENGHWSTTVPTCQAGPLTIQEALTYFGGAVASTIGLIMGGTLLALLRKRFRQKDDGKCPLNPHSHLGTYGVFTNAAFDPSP

Oc1cc2ccccc2nc1-c1ccccc1
Activity [1]: inactive

COc1ccc2c(C(=O)O)c(O)c(-c3ccc(Cl)cc3)nc2c1
IC50 [2]: 151 µM

COc1ccc(-c2ccc3nc(-c4ccc(Cl)cc4)c(O)c(C(=O)O)c3c2)cc1
inhibition [3]: 39%

O=C(O)c1c(O)c(-c2ccc(Cl)cc2)nc2c(C(F)(F)F)cccc12
IC50 (HUVEC): 13 µM
IC50 [2]: 136 µM

O=C(O)c1c(O)c(-c2ccc(Cl)cc2)nc2ccc(OC(F)(F)F)cc12
IC50 (HUVEC): 25 µM

Cc1ccc2c(C(=O)O)c(O)c(-c3ccc(C(F)(F)F)cc3)nc2c1C
IC50 (HUVEC): 7 µM
clearance [4]: 4.7 mL/min/kg
AUC [5]: 8.58 µM·h
Cmax [6]: 9 µM

CN(C)c1ccc(-c2cccc3c(C(=O)O)c(O)c(-c4ccc(Cl)cc4)nc23)cc1
IC50 (HUVEC): 20 µM

Cc1cccc2c(C(=O)O)c(O)c(-c3ccc(Cl)cc3)nc12
IC50 (HUVEC): 13 µM
IC50 [2]: 212 µM

Cc1ccc2c(C(=O)O)c(O)c(-c3ccc(Cl)cc3)nc2c1C
IC50 (HUVEC): 10 µM
clearance [4]: 6.2 mL/min/kg
AUC [5]: 7.68 µM·h
Cmax [6]: 13 µM
Activity (Rattus norvegicus [7]): Non-toxic
concentration (Rattus norvegicus [8]): 1.8 µM
IC50 (Cytochrome P450 2C9): 2 µM
IC50 (Cytochrome P450 2C8): 9 µM
IC50 (Cytochrome P450 1A2): 4 µM
IC50 (Cytochrome P450 2C19): 1 µM
IC50 (Cytochrome P450 2A6): 20 µM
inhibition in vivo at 0.5 mg/kg (Rattus norvegicus [9]): 10.8%
inhibition in vivo at 1 mg/kg (Rattus norvegicus [10]): 12.8%
inhibition in vivo at 5 mg/kg (Rattus norvegicus [11]): 10.3%
inhibition in vivo at 10 mg/kg (Rattus norvegicus [12]): 14.1%
inhibition in vivo at 50 mg/kg (Rattus norvegicus [13]): 15.6%
IC50 (Cytochrome P450 3A4): 7 µM
IC50 (Cytochrome P450 2D6): 17 µM

Cc1ccc(-c2cc(C(F)(F)F)nn2-c2ccc(S(N)(=O)=O)cc2)cc1
Activity (Rattus norvegicus [14]): Active

O=C(O)c1c(O)c(-c2ccc(Cl)cc2)nc2c(OC(F)(F)F)cccc12
IC50 (HUVEC): 10.5 µM
IC50 [2]: 130 µM

Cc1ccc2c(C(=O)O)c(O)c(-c3ccc(Br)cc3)nc2c1C
IC50 (HUVEC): 6 µM
clearance [4]: 6.2 mL/min/kg
AUC [5]: 6.52 µM·h
Cmax [6]: 5.5 µM

O=C(O)c1ccc(-c2ccc3nc(-c4ccc(Cl)cc4)c(O)c(C(=O)O)c3c2)cc1
IC50 [2]: 135 µM

COc1ccc2cc([C@H](C)C(=O)O)ccc2c1 [NAPROXEN]
inhibition in vivo at 10 mg/kg (Rattus norvegicus [12]): 68.3%

Cc1ccc2c(C(=O)O)c(O)c(-c3cccc(Cl)c3)nc2c1C
IC50 (HUVEC): 5 µM

Nc1c(-c2ccc(-c3ccccc3)cc2)nc2ccc(F)cc2c1C(=O)O
IC50 [2]: 0.012 µM
LD50 [15]: 20.5 mg/kg

CCN(CC)c1ccc(-c2nc3c(C)c(C)ccc3c(C(=O)O)c2O)cc1
IC50 (HUVEC): 19 µM

CCc1cccc2c(C(=O)O)c(O)c(-c3ccc(Cl)cc3)nc12
IC50 (HUVEC): 10 µM

COc1c(-c2ccccc2)nc2ccccc2c1C(=O)O
inhibition [1]: 22%

CC(C)c1cccc2c(C(=O)O)c(O)c(-c3ccc(Cl)cc3)nc12
IC50 (HUVEC): 4.7 µM
clearance [4]: 6.5 mL/min/kg
AUC [5]: 6.7 µM·h
Cmax [6]: 7 µM
IC50 [2]: 283 µM

O=C(O)c1c(O)c(-c2ccc(Cl)cc2)nc2c(-c3ccccc3)cccc12
IC50 (HUVEC): 4.5 µM
clearance [4]: 9.1 mL/min/kg
AUC [5]: 3.93 µM·h
Cmax [6]: 9 µM
Activity (Rattus norvegicus [7]): Non-toxic
concentration (Rattus norvegicus [8]): 0.5 µM
IC50 (Cytochrome P450 2C9): 8.2 µM
IC50 (Cytochrome P450 2C8): 4.8 µM
IC50 (Cytochrome P450 1A2): 500 µM
IC50 (Cytochrome P450 2C19): 146 µM
IC50 (Cytochrome P450 2A6): 500 µM
bioavailability [16]: 24%
IC50 (Cytochrome P450 3A4): 55 µM
IC50 (Cytochrome P450 2D6): 151 µM

COc1cccc2c(C(=O)O)c(O)c(-c3ccc(Cl)cc3)nc12
IC50 [2]: 306 µM

Cc1ccc2c(C(=O)O)c(O)c(-c3cccc(OC(F)(F)F)c3)nc2c1C
IC50 (HUVEC): 5 µM

O=C(O)c1cc(-c2ccccc2)nc2ccccc12
inhibition [1]: 22%

O=C(O)c1c(O)c(-c2ccc(Cl)cc2)nc2ccc(-c3ccccc3)cc12
IC50 [2]: 230 µM

Cc1cc(OC(F)(F)F)cc2c(C(=O)O)c(O)c(-c3ccc(Cl)cc3)nc12
IC50 (HUVEC): 15.5 µM

O=C(O)c1c(O)c(-c2ccc(Cl)cc2)nc2c(Cl)cccc12
IC50 (HUVEC): 22 µM
IC50 [2]: 141 µM

Cc1ccc2c(C(=O)O)c(O)c(-c3ccc(C(C)C)cc3)nc2c1C
IC50 (HUVEC): 8 µM

O=C(O)c1c(O)c(-c2ccc(Cl)cc2)nc2ccc(-c3ccsc3)cc12
IC50 [2]: 134 µM

Cc1ccc2c(C(=O)O)c(O)c(-c3ccc(OC(F)(F)F)cc3)nc2c1C
IC50 (HUVEC): 15 µM

CCC(C)c1cccc2c(C(=O)O)c(O)c(-c3ccc(Cl)cc3)nc12 (stereo not drawn)
IC50 (HUVEC): 3 µM
clearance [4]: 13.3 mL/min/kg
AUC [5]: 3.45 µM·h
Cmax [6]: 6.7 µM
IC50 [2]: 301 µM

O=C(O)c1c(O)c(-c2ccc(Cl)cc2)nc2ccc(Cl)cc12
inhibition [17]: 38%

O=C(O)c1c(O)c(-c2ccc(Cl)cc2)nc2c(Br)cccc12
IC50 (HUVEC): 20 µM
IC50 [2]: 132 µM
